According to patent publication US20240294542A1, “NLRP3 INFLAMMASOME INHIBITOR AND APPLICATION THEREOF” (TransThera Sciences (Nanjing), Inc., priority 2021, published 2024):

test system: NLRP3 inflammasomes; assay: Inhibitory activity against NLRP3 inflammasome in THP-1 cells (LPS/nigericin stimulation, IL-1β ELISA); format: cell-based; details: PMA-differentiated THP-1 cells; LPS 500 ng/mL 3 h, compound 1 h, nigericin 10 μg/mL 30 min; human IL-1β in supernatant by Elisa; read-out: IC50 (nM), inhibitory activities against NLRP3 in THP-1 cells
Experimental: Test Samples: The compounds of the present invention prepared according to exemplary methods.
THP-1 is Immortalized Human Macrophage Cell Line
• Test instrument: microplate reader (made from PE)
• 1. […] Culture plate coating: 100 μL polylysine solution was added into a 96-well cell culture plate, and the reaction was carried out at 37° C. for 30 min. The solution was discarded, and PBS was washed twice for later use. • 3. […] The resulting mixture was uniformly mixed, and finally diluted by 1:1000 times, and the cells were placed in a carbon dioxide cell incubator at 37° C. and cultured for 1 h. • c. Nigericin was added to each well at a final concentration of 10 μg/mL, and the plate was placed in a carbon dioxide cell incubator at 37° C. and cultured for 30 min. • d. The media in wells were transferred to a new culture plate, and then the plate was centrifuged at 3000 rpm for 5 min. Then the supernatant was transferred to a new 96-well plate. • e. The collected cell culture supernatant samples were tested for the content of human IL-1β by using a commercial Elisa kit, as specified in the instructions.

SMILES | IC50
N#Cc1ccc(-c2nnc(N[C@@H]3CCCN(C4CC4)C3)c3ccccc23)c(O)c1 [Compound 111, (R)-4-(4-((1-cyclopropylpiperidin-3-yl)amino)phthalazin-1-yl)-3-hydroxybenzonitrile] | 4 nM
CN1CCC[C@@H](Nc2nnc(-c3ccc(Br)cc3O)c3ccccc23)C1 [Compound 73, (R)-5-bromo-2-(4-((1-methylpiperidin-3-yl)amino)phthalazin-1-yl)phenol] | 1 nM
Cc1ccc(-c2nnc(N[C@@H]3CCCN(C)C3)c3c2CCCC3)c(O)c1F [Compound 29a, (R)-2-fluoro-3-methyl-6-(4-((1-methylpiperidin-3-yl)amino)-5,6,7,8-tetrahydrophthalazin-1-yl)phenol] | 1 nM
CN1CCC[C@@H](Nc2nnc(-c3ccc(C#N)cc3O)c3ccsc23)C1 [Compound 77, (R)-3-hydroxy-4-(7-((1-methylpiperidin-3-yl)amino)thieno[2,3-d]pyridazin-4-yl)benzonitrile] | 2 nM
Cc1ccc(-c2nnc(N[C@@H]3CCCN(C)C3)c3ccsc23)c(O)c1 [Compound 48, (R)-5-methyl-2-(4-((1-methylpiperidin-3-yl)amino)thieno[2,3-d]pyridazin-7-yl)phenol] | 2 nM
C[C@]1(O)C[C@@H](Nc2nnc(-c3ccc(C(F)(F)F)cc3O)c3c2CCCC3)C1 [Compound 32a, 2-(4-(((cis)-3-hydroxy-3-methylcyclobutyl)amino)-5,6,7,8-tetrahydrophthalazin-1-yl)-5-(trifluoromethyl)phenol] | 7 nM
CN1CCC[C@@H](Nc2nnc(-c3ccc(C#N)cc3O)c3ccccc23)C1 [Compound 42, (R)-3-hydroxy-4-(4-((1-methylpiperidin-3-yl)amino)phthalazin-1-yl)benzonitrile] | 13 nM
Cc1ccc(-c2nnc(N[C@@H]3CCCN(C)C3)c3cnccc23)c(O)c1 [Compound 50, (R)-5-methyl-2-(4-((1-methylpiperidin-3-yl)amino)pyrido[3,4-d]pyridazin-1-yl)phenol] | 1 nM
Cc1ccc(-c2nnc(N[C@@H]3CCCN(C)C3)c3c(F)cccc23)c(O)c1 [Compound 9, (R)-2-(5-fluoro-4-((1-methylpiperidin-3-yl)amino)phthalazin-1-yl)-5-methylphenol] | 3 nM
Cc1ccc(-c2nnc(N[C@@H]3CCCN(C)C3)c3c(Br)cccc23)c(O)c1 [Compound 34, (R)-2-(5-bromo-4-((1-methylpiperidin-3-yl)amino)phthalazin-1-yl)-5-methylphenol] | 8 nM
Cc1ccc2c(-c3ccc(C4CC4)cc3O)nnc(N[C@@H]3CCCN(C)C3)c2c1 [Compound 90, (R)-5-cyclopropyl-2-(6-methyl-4-((1-methylpiperidin-3-yl)amino)phthalazin-1-yl)phenol] | 7 nM
CN1CCC[C@@H](Nc2nnc(-c3ccc(Cl)cc3O)c3ccccc23)C1 [Compound 101, (R)-5-chloro-2-(4-((1-methylpiperidin-3-yl)amino)phthalazin-1-yl)phenol] | 5 nM
Cc1ccc(-c2nnc(N[C@@H]3CCCN(C)C3)c3c2CCCC3)c(O)c1 [Compound 1a, (R)-5-methyl-2-(4-((1-methylpiperidin-3-yl)amino)-5,6,7,8-tetrahydrophthalazin-1-yl)phenol] | 7 nM
COc1ccc(-c2nnc(N[C@@H]3CCCN(C)C3)c3ccccc23)c(O)c1 [Compound 74, (R)-5-methoxy-2-(4-((1-methylpiperidin-3-yl)amino)phthalazin-1-yl)phenol] | 6 nM
Cc1ccc(-c2nnc(N[C@@H]3CCCN(C)C3)c3ccccc23)c(O)c1 [Compound 1, (R)-5-methyl-2-(4-((1-methylpiperidin-3-yl)amino)phthalazin-1-yl)phenol] | 1.8 nM
CN1CCC[C@@H](Nc2nnc(-c3ccc(C#N)cc3O)c3ccncc23)C1 [Compound 79, (R)-3-hydroxy-4-(4-((1-methylpiperidin-3-yl)amino)pyrido[3,4-d]pyridazin-1-yl)benzonitrile] | 13 nM
CN1CCC[C@@H](Nc2nnc(-c3ccc(F)c(F)c3O)c3c2CCCC3)C1 [Compound 31a, (R)-2,3-difluoro-6-(4-((1-methylpiperidin-3-yl)amino)-5,6,7,8-tetrahydrophthalazin-1-yl)phenol] | 6 nM
Cc1ccc(-c2nnc(N[C@@H]3CCCN(C)C3)c3ccncc23)c(O)c1 [Compound 49, (R)-5-methyl-2-(1-((1-methylpiperidin-3-yl)amino)pyrido[3,4-d]pyridazin-4-yl)phenol] | 9 nM
Cc1ccc(-c2nnc(N[C@@H]3CCCN(C)C3)c3c2CCC3)c(O)c1 [Compound 3a, (R)-5-methyl-2-(4-((1-methylpiperidin-3-yl)amino)-6,7-dihydro-5H-cyclopenta[d]pyridazin-1-yl)phenol] | 4 nM

SMILES | IC50
COc1ccc(-c2nnc(N[C@@H]3CCCN(C)C3)c3c2CCCC3)c(O)c1 [Compound 23a, (R)-5-methoxy-2-(4-((1-methylpiperidin-3-yl)amino)-5,6,7,8-tetrahydrophthalazin-1-yl)phenol] | 6 nM
Cc1ccc2c(-c3ccc(C#N)cc3O)nnc(N[C@@H]3CCCN(C)C3)c2c1 [Compound 55, (R)-3-hydroxy-4-(6-methyl-4-((1-methylpiperidin-3-yl)amino)phthalazin-1-yl)benzonitrile] | 4 nM
Cc1ccc(-c2nnc(N[C@@H]3CCCN(C)C3)c3ncccc23)c(O)c1 [Compound 38, (R)-5-methyl-2-(8-((1-methylpiperidin-3-yl)amino)pyrido[2,3-d]pyridazin-5-yl)phenol] | 12 nM
CN1CCC[C@@H](Nc2nnc(-c3ccc(C4CC4)cc3O)c3ccccc23)C1 [Compound 72, (R)-5-cyclopropyl-2-(4-((1-methylpiperidin-3-yl)amino)phthalazin-1-yl)phenol] | 1 nM
Cc1ccc(-c2nnc(N[C@@H]3CCCN(C)C3)c3cc(C)ccc23)c(O)c1 [Compound 4, (R)-5-methyl-2-(6-methyl-4-((1-methylpiperidin-3-yl)amino)phthalazin-1-yl)phenol] | 9 nM
COc1ccc2c(-c3ccc(C)cc3O)nnc(N[C@@H]3CCCN(C)C3)c2c1 [Compound 16, (R)-2-(6-methoxy-4-((1-methylpiperidin-3-yl)amino)phthalazin-1-yl)-5-methylphenol] | 7 nM
Cc1ccc2c(N[C@@H]3CCCN(C)C3)nnc(-c3ccc(C#N)cc3O)c2c1 [Compound 54, (R)-3-hydroxy-4-(7-methyl-4-((1-methylpiperidin-3-yl)amino)phthalazin-1-yl)benzonitrile] | 13 nM
CN1CCC[C@@H](Nc2nnc(-c3ccc(C(F)F)cc3O)c3ccccc23)C1 [Compound 87, (R)-5-(difluoromethyl)-2-(4-((1-methylpiperidin-3-yl)amino)phthalazin-1-yl)phenol] | 2 nM
CN1CCC[C@@H](Nc2nnc(-c3ccc(C#N)cc3O)c3sccc23)C1 [Compound 78, (R)-3-hydroxy-4-(4-((1-methylpiperidin-3-yl)amino)thieno[2,3-d]pyridazin-7-yl)benzonitrile] | 2 nM
CN1CCC[C@@H](Nc2nnc(-c3ccc(C4CC4)cc3O)c3c2CCCC3)C1 [Compound 5a, (R)-5-cyclopropyl-2-(4-((1-methylpiperidin-3-yl)amino)-5,6,7,8-tetrahydrophthalazin-1-yl)phenol] | 5 nM
Cc1ccc(-c2nnc(N[C@@H]3CCCN(C)C3)c3cc(C#N)ccc23)c(O)c1 [Compound 20, (R)-1-(2-hydroxy-4-methylphenyl)-4-((1-methylpiperidin-3-yl)amino)phthalazine-6-carbonitrile] | 12 nM
Cc1ccc(-c2nnc(N[C@@H]3CCCN(C)C3)c3cc(C4CC4)ccc23)c(O)c1 [Compound 32, (R)-2-(6-cyclopropyl-4-((1-methylpiperidin-3-yl)amino)phthalazin-1-yl)-5-methylphenol] | 15 nM
N#Cc1ccc(-c2nnc(N[C@@H]3CCCN(CCO)C3)c3ccccc23)c(O)c1 [Compound 127, (R)-3-hydroxy-4-(4-((1-(2-hydroxyethyl)piperidin-3-yl)amino)phthalazin-1-yl)benzonitrile] | 4 nM
CN1CCC[C@@H](Nc2nnc(-c3ccc(C(F)F)cc3O)c3c2CCCC3)C1 [Compound 15a, (R)-5-(difluoromethyl)-2-(4-((1-methylpiperidin-3-yl)amino)-5,6,7,8-tetrahydrophthalazin-1-yl)phenol] | 2 nM
Cc1ccc2c(-c3ccc(Br)cc3O)nnc(N[C@@H]3CCCN(C)C3)c2c1 [Compound 88, (R)-5-bromo-2-(6-methyl-4-((1-methylpiperidin-3-yl)amino)phthalazin-1-yl)phenol] | 1 nM
CC(C)N1CCC[C@@H](Nc2nnc(-c3ccc(C#N)cc3O)c3ccccc23)C1 [Compound 125, (R)-3-hydroxy-4-(4-((1-isopropylpiperidin-3-yl)amino)phthalazin-1-yl)benzonitrile] | 3 nM
Cc1ccc(-c2nnc(N[C@@H]3CCCN(C)C3)c3cc(Br)ccc23)c(O)c1 [Compound 60, (R)-2-(6-bromo-4-((1-methylpiperidin-3-yl)amino)phthalazin-1-yl)-5-methylphenol] | 13 nM
CN1CCC[C@@H](Nc2nnc(-c3ccc(C4CC4)cc3O)c3ccncc23)C1 [Compound 95, (R)-5-cyclopropyl-2-(4-((1-methylpiperidin-3-yl)amino)pyrido[3,4-d]pyridazin-1-yl)phenol] | 1 nM
